# Results filed as inconclusive are left out. Calls of active or inactive are those of the source. How the calls were made is not given here.
# Test system: S. typhimurium/E. coli reverse mutation, colony counts
# Assay: Bacterial reverse mutation test (aka Ames test) summary data
# Outline: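 S. typhimurium his⁻ strains (TA97–TA1538) and E. coli WP2 uvrA pKM101 trp⁻, dosed over a range with or without rat, hamster or mouse liver S9. Preincubated 20 min at 37° C (or plate incorporation), plated in agar, incubated usually two days. Revertant colonies counted against negative controls.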
row,Compound,outcome
1,Nc1c(N=Nc2ccc(-c3ccc(N=Nc4ccc(O)cc4)cc3)cc2)c(S(=O)(=O)O)cc2cc(S(=O)(=O)O)c(N=Nc3ccccc3)c(O)c12,active; positive
2,Cc1cc(Cl)ccc1O,inactive; negative
3,ClCC1CO1 (centres undefined),active; positive
4,O=C(O)COc1ccccc1,inactive; negative
5,Clc1cccc(Cl)c1Cl,inactive; negative
6,NC(=O)N=NC(N)=O,active; positive
7,O=C=Nc1ccc(Cc2ccc(N=C=O)cc2)cc1,inactive; negative
8,[Cl-].[Cl-].[Sn+2],inactive; negative
9,CCCCCCCCCCC1CO1 (centres undefined),inactive; negative
10,CC(=O)Oc1ccccc1C(=O)O,inactive; negative
11,O=S(=O)(O)c1ccccc1,inactive; negative
12,CC[C@H]1OC(=O)[C@H](C)[C@@H](O[C@H]2C[C@@](C)(OC)[C@@H](O)[C@H](C)O2)[C@H](C)[C@@H](O[C@@H]2O[C@H](C)C[C@H](N(C)C)[C@H]2O)[C@](C)(OC)C[C@@H](C)C(=O)[C@H](C)[C@@H](O)[C@]1(C)O,inactive; negative
13,O=C1C(Cl)=C(Cl)C(=O)C(Cl)=C1Cl,active; positive
14,CCN(CC)CC,inactive; negative
15,C=C(C)[C@H]1CC=C(C)CC1,inactive; negative
16,Clc1ccc(C(Cl)(Cl)Cl)cc1Cl,active; positive
17,Brc1cc(Br)c(Oc2cc(Br)c(Br)cc2Br)cc1Br,inactive; negative
18,COc1cc(-c2ccc(N=Nc3ccc4c(S(=O)(=O)O)cc(S(=O)(=O)O)c(N)c4c3O)c(OC)c2)ccc1N=Nc1ccc2c(S(=O)(=O)O)cc(S(=O)(=O)O)c(N)c2c1O,active; positive
19,CC(C)=O,inactive; negative
20,CCCCOB(OCCCC)OCCCC,inactive; negative
21,CC1(C)[C@@H]2CC[C@@]1(C)C(=O)C2,inactive; negative
22,ClNc1nc(NCl)nc(NCl)n1,inactive; negative
23,CC(=O)OCc1ccc2c(c1)OCO2,inactive; negative
24,Nc1ccc(Br)cc1,inactive; negative
25,Clc1ccc(COC(Cn2ccnc2)c2ccc(Cl)cc2Cl)cc1 (centres undefined),inactive; negative
26,COc1cccc2sc(N)nc12,active; positive

row,Compound,outcome
1,O=[N+]([O-])c1ccc2c3c(cccc13)CC2,active; positive
2,O=[N+]([O-])CCO,active; positive
3,CC(=O)Nc1ccc(C(=O)CCl)cc1,active; positive
4,Cc1c(C(=O)O)cccc1[N+](=O)[O-],active; positive
5,CC(=O)C(C)O (centres undefined),inactive; negative
6,Nc1c(S(=O)(=O)O)cc(Nc2cccc(S(=O)(=O)CCOS(=O)(=O)O)c2)c2c1C(=O)c1ccccc1C2=O,active; positive
7,CS(C)=O,inactive; negative
8,CCBr,active; positive
9,CCN(Cc1ccccc1)c1ccccc1,inactive; negative
10,S=C1NC=NC2N=CNC12 (centres undefined),active; positive
11,NC(=O)c1cccnc1,inactive; negative
12,CC(=O)c1nccs1,inactive; negative
13,OCC(Cl)Cl,active; weakly positive
14,CC(O)CBr (centres undefined),active; positive
15,OC(CCl)CCl,active; positive
16,Cc1cccc(O)c1,inactive; negative
17,CC[n+]1c(-c2ccccc2)c2cc(N)ccc2c2ccc(N)cc21,active; positive
18,CCCCC(CC)COS(=O)(=O)O (centres undefined),inactive; negative
19,C[C@H]1CCC[C@H](O)CCCCCc2cc(O)cc(O)c2C(=O)O1,inactive; negative
20,IC(I)I,active; positive
21,C=C1C/C(=C/C)C(=O)O[C@@H]2CCN3CC=C(COC(=O)[C@]1(C)O)[C@H]23,active; positive
22,O=CC=Cc1ccco1,inactive; negative
23,CCCCC,inactive; negative
24,CCN(CC)C(=O)C(Cl)=C(C)OP(=O)(OC)OC,active; positive
25,CN(C)C(=S)[S-].CN(C)C(=S)[S-].[Pb+2],active; positive
26,CN(C)c1nc(=O)n(C2CCCCC2)c(=O)n1C,inactive; negative

row,Compound,outcome
1,COP(=O)(OC)OC=C(Cl)Cl,active; positive
2,Cc1cc(N=Nc2ccccc2C)ccc1N,active; positive
3,ClC(Cl)=C(c1ccc(Cl)cc1)c1ccc(Cl)cc1,inactive; negative
4,c1cc(OCC2CO2)cc(OCC2CO2)c1 (centres undefined),active; positive
5,CCN(CC)c1ccc(N)cc1,active; positive
6,O=C1O[C@H](CO)[C@@H](O)[C@H](O)[C@H]1O,inactive; negative
7,CC1=C(/C=C/C(C)=C/C=C/C(C)=C/C=C/C=C(C)/C=C/C=C(C)/C=C/C2=C(C)CCCC2(C)C)C(C)(C)CCC1,active; positive
8,O=C(Cl)c1ccccc1[N+](=O)[O-],active; positive
9,COc1cc([N+](=O)[O-])ccc1N,active; positive
10,C=C(C)[C@H]1CC=C(C)C(=O)C1,inactive; negative
11,Nc1nc2ccc([N+](=O)[O-])cc2s1,active; positive
12,NCCCCCCN,inactive; negative
13,BrCCBr,active; positive
14,CCCCN(CC)CC,inactive; negative
15,C=CCOC(=O)C=C,inactive; negative
16,CCNc1ccc([N+](=O)[O-])cc1C,active; positive
17,ClC1(Cl)C2(Cl)C3(Cl)C4(Cl)C(Cl)(Cl)C5(Cl)C3(Cl)C1(Cl)C5(Cl)C24Cl (centres undefined),inactive; negative
18,CCCc1cc(=O)[nH]c(=S)[nH]1,inactive; negative
19,CC(=O)C=Cc1ccc2c(c1)OCO2,inactive; negative
20,O=C(O)c1ccc(O)cc1O,inactive; negative
21,Nc1nc(N)c2nc(-c3ccccc3)c(N)nc2n1,inactive; negative
22,CCCCCCCCCCCCCC(=O)[O-].CCCCCCCCCCCCCC(=O)[O-].[Zn+2],inactive; negative
23,CCOCCOCCO,inactive; negative
24,C=C(C)CCl,active; weakly positive
25,Clc1ccccc1Cl,inactive; negative
26,NS(=O)(=O)c1cc2c(cc1Cl)NCNS2(=O)=O,inactive; negative

row,Compound,outcome
1,COc1cc(Cl)c(OC)cc1Cl,active; positive
2,C=CC(=O)OCCBr,active; positive
3,CCCC=NO,active; weakly positive
4,COCCOC(C)=O,active; weakly positive
5,CCN(C=O)CC,inactive; negative
6,CCCCCCOc1ccc(O)cc1,inactive; negative
7,Clc1ccccn1,active; positive
8,[CH3][Pb]([CH3])([CH3])[CH3],inactive; negative
9,CC=O,inactive; negative
10,C=C(C)C(=O)OCC(Br)CBr (centres undefined),active; positive
11,CC=NO,active; positive
12,NC(=O)c1cnccn1,inactive; negative
13,CCCOC(=O)c1cc(O)c(O)c(O)c1,inactive; negative
14,O=[N+]([O-])c1ccc(Cl)c(Cl)c1Cl,active; positive
15,CCN(CC)CCN1C(=O)CN=C(c2ccccc2F)c2cc(Cl)ccc21,inactive; negative
16,Nc1cc(Cl)cc(S(=O)(=O)O)c1O,inactive; negative
17,NC1NC=CS1 (centres undefined),active; positive
18,NCCO,inactive; negative
19,CNc1ccccc1N,active; positive
20,NC(=O)CC(N)=O,inactive; negative
21,CCOC(C=C(C)CCC=C(C)C)OCC,active; positive
22,CC(O)c1ccccc1 (centres undefined),inactive; negative
23,Cn1cnc2c1c(=O)[nH]c(=O)n2C,inactive; negative
24,Cc1cc(=O)oc2cc(O)ccc12,inactive; negative
25,CCOc1ccc(N)cc1,active; positive
26,CCOc1ccccc1C(N)=O,inactive; negative

row,Compound,outcome
1,CC(=O)OCCOCCOCCOC(C)=O,active; positive
2,CSSC,inactive; negative
3,Cc1ccc2c(c1[N+](=O)[O-])C(=O)c1ccccc1C2=O,active; positive
4,Cc1ccc2oc(=O)ccc2c1,inactive; negative
5,Oc1cc2c(cc1O)[C@@H]1c3ccc(O)c(O)c3OC[C@]1(O)C2,inactive; negative
6,Nc1ccc(N)c2c1C(=O)c1c(N)ccc(N)c1C2=O,active; positive
7,CN(C)c1ccc(C(=C2C=CC(=[N+](C)C)C=C2)c2ccccc2)cc1,inactive; negative
8,O=P(Oc1ccccc1)(Oc1ccccc1)Oc1ccccc1,inactive; negative
9,CN(C)C(=O)Nc1cccc(C(F)(F)F)c1,inactive; negative
10,CC1OC1C (centres undefined),active; positive
11,CC(=O)C=CC1=C(C)CCCC1(C)C,inactive; negative
12,ClCCCl,active; positive
13,O=C1c2c(Br)c(Br)c(Br)c(Br)c2C(=O)N1CCN1C(=O)c2c(Br)c(Br)c(Br)c(Br)c2C1=O,inactive; negative
14,CCCCCc1cc(O)c2c(c1)OC(C)(C)[C@@H]1CCC(C)=C[C@@H]21,inactive; negative
15,Nc1ccccc1,inactive; negative
16,c1ccc(SCCSc2ccccc2)cc1,inactive; negative
17,CO/N=C(\C(=O)N[C@@H]1C(=O)N2C(C(=O)O)=C(COC(N)=O)CS[C@H]12)c1ccco1,inactive; negative
18,OCCBr,active; positive
19,C=CC(=O)OC,inactive; negative
20,Cc1cccc([N+](=O)[O-])c1C,active; positive
21,CCNc1nc(Cl)nc(NC(C)C)n1,inactive; negative
22,CCN(CC)CCO,inactive; negative
23,c1ccccc1,inactive; negative
24,Nc1c2ccccc2nc2ccccc12,active; positive
25,Nc1cc([N+](=O)[O-])ccc1C(=O)O,active; positive
